Literature values in patent US20080119448A1, “Methods of treating an ocular allergy with low dose dexamethasone” (priority 2006, published 2008).

Details: dexamethasone at 0.1%

For `C[C@@H]1C[C@H]2[C@@H]3CCC4=CC(=O)C=C[C@]4(C)[C@@]3(F)[C@@H](O)C[C@]2(C)[C@@]1(O)C(=O)CO` [dexamethasone], the “effect on intraocular pressure” value is listed as “increase in intraocular pressure”.
